Assays:
HDAC6 human recombinant = target: T1, HDAC6 human recombinant (Homo sapiens, UniProt Q9UBN7); assay: HDAC enzyme activity inhibition (in vitro), HDAC6 assay; assay type: biochemical; settings: samples at 0.1, 1, 10, 100 and 1000 nM; 37° C. 60 minutes; fluorescence Ex 390, Em 460; read-out: HDAC6 IC50
T1 construct: purchased Calbiochem 382180
T1 sequence (Q9UBN7 1-1215): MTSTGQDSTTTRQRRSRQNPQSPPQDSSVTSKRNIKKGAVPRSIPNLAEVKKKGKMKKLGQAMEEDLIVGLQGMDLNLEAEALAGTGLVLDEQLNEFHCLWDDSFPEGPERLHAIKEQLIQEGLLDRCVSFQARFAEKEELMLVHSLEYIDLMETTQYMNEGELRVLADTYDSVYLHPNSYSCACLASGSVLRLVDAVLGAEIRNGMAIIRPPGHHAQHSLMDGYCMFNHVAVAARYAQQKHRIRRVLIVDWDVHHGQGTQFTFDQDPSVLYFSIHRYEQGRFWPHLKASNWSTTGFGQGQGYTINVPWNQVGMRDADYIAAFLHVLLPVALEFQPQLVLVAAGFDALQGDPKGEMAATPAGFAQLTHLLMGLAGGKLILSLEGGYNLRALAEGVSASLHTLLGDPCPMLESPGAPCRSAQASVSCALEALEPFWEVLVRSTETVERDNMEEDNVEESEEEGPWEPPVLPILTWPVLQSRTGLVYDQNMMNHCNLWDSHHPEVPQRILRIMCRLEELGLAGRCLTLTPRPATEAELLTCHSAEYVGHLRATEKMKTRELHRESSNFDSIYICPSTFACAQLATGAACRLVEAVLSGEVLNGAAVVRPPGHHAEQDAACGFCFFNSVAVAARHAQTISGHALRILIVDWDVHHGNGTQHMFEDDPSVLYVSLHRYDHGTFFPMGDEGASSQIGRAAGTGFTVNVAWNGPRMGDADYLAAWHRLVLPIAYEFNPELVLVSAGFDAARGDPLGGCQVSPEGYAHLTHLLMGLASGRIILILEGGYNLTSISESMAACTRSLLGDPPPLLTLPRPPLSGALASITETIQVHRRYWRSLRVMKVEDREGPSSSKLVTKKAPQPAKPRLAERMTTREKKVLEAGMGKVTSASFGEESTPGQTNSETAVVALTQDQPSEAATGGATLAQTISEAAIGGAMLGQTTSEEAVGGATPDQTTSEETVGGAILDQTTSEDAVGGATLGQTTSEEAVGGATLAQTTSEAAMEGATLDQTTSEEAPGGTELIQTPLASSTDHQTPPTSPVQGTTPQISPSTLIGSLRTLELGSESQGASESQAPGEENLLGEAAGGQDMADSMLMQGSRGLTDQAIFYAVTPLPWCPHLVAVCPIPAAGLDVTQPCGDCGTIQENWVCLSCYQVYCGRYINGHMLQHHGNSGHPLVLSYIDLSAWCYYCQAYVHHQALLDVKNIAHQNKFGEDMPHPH
In short: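 Fluorescence (Ex 390, Em 460) read after a 37° C, 60 min enzyme reaction and a further 30 min developer step at 37° C. Uses recombinant human HDAC6; HDAC1 arm dosed at 100, 1000, 10000 nM.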

HDAC1 = target: T2, HDAC1 (Homo sapiens, UniProt Q13547); assay: HDAC enzyme activity inhibition (in vitro), HDAC1 Fluorimetric Drug Discovery Assay Kit; assay type: biochemical; settings: samples at 100, 1000 and 10000 nM; 37° C. 60 minutes; fluorescence Ex 390, Em 460; read-out: HDAC1 IC50
T2 construct: purchased Enzolifesciences BML-AK511
T2 sequence (Q13547 whole entry): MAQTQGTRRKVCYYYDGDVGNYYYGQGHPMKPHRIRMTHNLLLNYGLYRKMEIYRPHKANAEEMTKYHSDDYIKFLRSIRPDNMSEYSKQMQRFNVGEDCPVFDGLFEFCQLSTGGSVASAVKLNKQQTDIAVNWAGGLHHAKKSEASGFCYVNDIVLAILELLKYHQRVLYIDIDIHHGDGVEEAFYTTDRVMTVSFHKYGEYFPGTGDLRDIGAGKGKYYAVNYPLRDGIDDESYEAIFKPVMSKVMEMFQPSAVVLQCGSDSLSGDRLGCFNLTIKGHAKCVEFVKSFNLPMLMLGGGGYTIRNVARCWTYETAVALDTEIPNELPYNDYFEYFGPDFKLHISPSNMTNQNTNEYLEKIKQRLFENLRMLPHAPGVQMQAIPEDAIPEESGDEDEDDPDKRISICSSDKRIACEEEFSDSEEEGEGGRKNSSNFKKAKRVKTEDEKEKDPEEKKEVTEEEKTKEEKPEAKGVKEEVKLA
In short: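 Fluorescence read-out (Ex 390/Em 460) after developer step, 30 min at 37° C, following a 60-min 37° C enzyme reaction. Test concentrations: HDAC1 kit, 100–10000 nM (three levels); recombinant human HDAC6, 0.1–1000 nM (five levels).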

Row | IC50 (HDAC6 human recombinant) | IC50 (HDAC1) | Compound
1 | 16 nM | > 10000 nM | CC(C)N1CCC(n2cc(-c3ccc4c(c3)sc(=O)n4Cc3ccc(-c4nnc(C(F)F)o4)cn3)cn2)CC1 [Compound 354, 3-((5-(5-(difluoromethyl)-1,3,4-oxadiazole-2-yl)pyridine-2-yl)methyl)-6-(1-(1-isopropylpiperidine-4-yl)-1H-pyrazole-4-yl)benzo[d]thiazole-2(3H)-one]
2 | 112 nM | > 10000 nM | O=c1oc2cc(C3CCN(C4COC4)CC3)ccc2n1Cc1ccc(-c2nnc(C(F)F)o2)cn1 [Compound 314, 3-((5-(5-(difluoromethyl)-1,3,4-oxadiazole-2-yl)pyridine-2-yl)methyl)-6-(1-(oxetan-3-yl)piperidine-4-yl)benzo[d]oxazole-2(3H)-one]
3 | 33 nM | > 10000 nM | CC(C)N1CCN(c2cc(-c3cc4oc(=O)n(Cc5ccc(-c6nnc(C(F)F)o6)cn5)c4cc3F)ccn2)CC1 [Compound 365, 3-((5-(5-(difluoromethyl)-1,3,4-oxadiazole-2-yl)pyridine-2-yl)methyl)-5-fluoro-6-(2-(4-isopropylpiperazine-1-yl)pyridine-4-yl)benzo[d]oxazole-2(3H)-one]
4 | 22 nM | > 10000 nM | O=c1oc2cc(-c3ccc(N4CCNCC4)nc3)c(F)cc2n1Cc1ccc(-c2nnc(C(F)F)o2)cn1 [Compound 345, 3-((5-(5-(difluoromethyl)-1,3,4-oxadiazole-2-yl)pyridine-2-yl)methyl)-5-fluoro-6-(6-(piperazine-1-yl)pyridine-3-yl)benzo[d]oxazole-2(3H)-one]
5 | 208 nM | > 10000 nM | Cn1c(=O)n(Cc2ccc(-c3nnc(C(F)F)o3)cn2)c2cc(F)c(-c3cnc(N4CCN(C(=O)OC(C)(C)C)CC4)nc3)cc21 [Compound 341, tert-butyl 4-(5-(1-((5-(5-(difluoromethyl)-1,3,4-oxadiazole-2-yl)pyridine-2-yl)methyl)-6-fluoro-3-methyl-2-oxo-2,3-dihydro-1H-benzo[d]imidazole-5-yl)pyrimidine-2-yl)piperazine-1-carboxylate]
6 | 52 nM | > 10000 nM | O=c1oc2cc(-c3cnc(N4CCN(C5COC5)CC4)nc3)c(F)cc2n1Cc1ccc(-c2nnc(C(F)F)o2)cn1 [Compound 339, 3-((5-(5-(difluoromethyl)-1,3,4-oxadiazole-2-yl)pyridine-2-yl)methyl)-5-fluoro-6-(2-(4-(oxetan-3-yl)piperazine-1-yl)pyrimidine-5-yl)benzo[d]oxazole-2(3H)-one]

The remaining lines, values behind:

Row | Compound | IC50 (HDAC6 human recombinant) | IC50 (HDAC1)
7 | O=c1n(Cc2ccc(-c3nnc(C(F)F)o3)cn2)c2cc(F)c(-c3cccc4[nH]ccc34)cc2n1CC1CCN(C2COC2)CC1 [Compound 289, 1-((5-(5-(difluoromethyl)-1,3,4-oxadiazole-2-yl)pyridine-2-yl)methyl)-6-fluoro-5-(1H-indole-4-yl)-3-((1-(oxetan-3-yl)piperidine-4-yl)methyl)-1,3-dihydro-2H-benzo[d]imidazole-2-one] | 4 nM | > 10000 nM
8 | O=c1n(Cc2ccc(-c3nnc(C(F)F)o3)cn2)c2cc(F)c(-c3cccc4[nH]ccc34)cc2n1[C@@H]1CCN(C2COC2)C1 [Compound 288, (R)-1-((5-(5-(difluoromethyl)-1,3,4-oxadiazole-2-yl)pyridine-2-yl)methyl)-6-fluoro-5-(1H-indole-4-yl)-3-(1-(oxetan-3-yl)pyrrolidine-3-yl)-1,3-dihydro-2H-benzo[d]imidazole-2-one] | 10 nM | > 10000 nM
9 | CN1CCC(n2c(=O)n(Cc3ccc(-c4nnc(C(F)F)o4)cn3)c3cc(F)c(-c4cccnc4)cc32)CC1 [Compound 155, 1-((5-(5-(difluoromethyl)-1,3,4-oxadiazole-2-yl)pyridine-2-yl)methyl)-6-fluoro-3-(1-methylpiperidine-4-yl)-5-(pyridine-3-yl)-1,3-dihydro-2H-benzo[d]imidazole-2-one] | 20 nM | > 10000 nM
10 | CN1CCC(n2c(=O)n(Cc3ccc(-c4nnc(C(F)F)o4)cn3)c3cc(F)c(-c4ccoc4)cc32)CC1 [Compound 150, 1-((5-(5-(difluoromethyl)-1,3,4-oxadiazole-2-yl)pyridine-2-yl)methyl)-6-fluoro-5-(furan-3-yl)-3-(1-methylpiperidine-4-yl)-1,3-dihydro-2H-benzo[d]imidazole-2-one] | 43 nM | > 10000 nM
11 | CN1CCC(N2Cc3ccccc3N(Cc3ccc(-c4nnc(C(F)F)o4)cc3F)C2=O)CC1 [Compound 33, 1-(4-(5-(difluoromethyl)-1,3,4-oxadiazole-2-yl)-2-fluorobenzyl)-3-(1-methylpiperidine-4-yl)-3,4-dihydroquinazoline-2(1H)-one] | 169 nM | > 10000 nM
12 | CN1CCC(n2c(=O)n(Cc3ccc(-c4nnc(C(F)F)o4)cn3)c3ccccc32)C1 (centres unmarked) [Compound 6, 1-((5-(5-(difluoromethyl)-1,3,4-oxadiazole-2-yl)pyridine-2-yl)methyl)-3-(1-methylpyrrolidine-3-yl)-1,3-dihydro-2H-benzo[d]imidazole-2-one] | 203 nM | > 10000 nM
13 | CN1CC[C@H](n2c(=O)n(Cc3ccc(-c4nnc(C(F)F)o4)cn3)c3cc(F)c(-c4cccnc4)cc32)C1 [Compound 268, (S)-1-((5-(5-(difluoromethyl)-1,3,4-oxadiazole-2-yl)pyridine-2-yl)methyl)-6-fluoro-3-(1-methylpyrrolidine-3-yl)-5-(pyridine-3-yl)-1,3-dihydro-2H-benzo[d]imidazole-2-one] | 20 nM | > 10000 nM
14 | CN1CCC(n2c(=O)n(Cc3ccc(-c4nnc(C(F)F)o4)cn3)c3cc(F)c(-c4cn(C(=O)OC(C)(C)C)c5ccc(Cl)cc45)cc32)CC1 [Compound 254] | 472 nM | > 10000 nM
15 | CC(C)N1CCC(n2c(=O)n(Cc3ccc(-c4nnc(C(F)F)o4)cn3)c3cc(Cl)ccc32)CC1 [Compound 214, 5-chloro-3-((5-(5-(difluoromethyl)-1,3,4-oxadiazole-2-yl)pyridine-2-yl)methyl)-1-(1-isopropylpiperidine-4-yl)-1,3-dihydro-2H-benzo[d]imidazole-2-one] | 15 nM | > 10000 nM
16 | COC(=O)c1cc2ccc(-c3ccc4c(c3)n(C)c(=O)n4Cc3ccc(-c4nnc(C(F)F)o4)cn3)cc2[nH]1 [Compound 244, methyl 6-(1-((5-(5-(difluoromethyl)-1,3,4-oxadiazole-2-yl)pyridine-2-yl)methyl)-3-methyl-2-oxo-2,3-dihydro-1H-benzo[d]imidazole-5-yl)-1H-indole-2-carboxylate] | 74 nM | > 10000 nM
17 | Cn1c(=O)n(Cc2ccc(-c3nnc(C(F)F)o3)cn2)c2ccc(-c3ccc(S(C)(=O)=O)cc3)cc21 [Compound 220, 1-((5-(5-(difluoromethyl)-1,3,4-oxadiazole-2-yl)pyridine-2-yl)methyl)-3-methyl-5-(4-(methylsulfonyl)phenyl)-1,3-dihydro-2H-benzo[d]imidazole-2-one] | 18 nM | > 10000 nM
18 | O=c1n(Cc2ccc(-c3nnc(C(F)F)o3)cn2)c2cc(F)c(-c3cccc4[nH]ccc34)cc2n1[C@@H]1CCCN(C2COC2)C1 [Compound 295, (R)-1-((5-(5-(difluoromethyl)-1,3,4-oxadiazole-2-yl)pyridine-2-yl)methyl)-6-fluoro-5-(1H-indole-4-yl)-3-(1-(oxetan-3-yl)piperidine-3-yl)-1,3-dihydro-2H-benzo[d]imidazole-2-one] | 10 nM | > 10000 nM
19 | CC(=O)N1CCC(c2ccc3c(c2)n(C2CCN(C)CC2)c(=O)n3Cc2ccc(-c3nnc(C(F)F)o3)cc2F)CC1 [Compound 157, 5-(1-acetylpiperidine-4-yl)-1-(4-(5-(difluoromethyl)-1,3,4-oxadiazole-2-yl)-2-fluorobenzyl)-3-(1-methylpiperidine-4-yl)-1,3-dihydro-2H-benzo[d]imidazole-2-one] | 159 nM | > 10000 nM

— patent publication US20230092890A1, “1, 3, 4-Oxadiazole derivative compounds as histone deacetylase 6 inhibitor, and the pharmaceutical composition comprising the same” (Chong Kun Dang Pharmaceutical Corp., priority 2019, published 2023)
